# In ChEMBL document CHEMBL4828722, “The synthesis and bioactivity of pyrrolo[2,3-d]pyrimidine derivatives as tyrosine kinase inhibitors for NSCLC cells with EGFR mutations” (Eur J Med Chem, 2021):
# Calls of active or inactive are those of the source. The calls are words filed in the database; no cut-off is given here.
# Key:
# NCI-H1975 [1] = assay: Induction of apoptosis in human NCI-H1975 cells harboring EGFR L858R/T790M mutant assessed as total apoptotic cells at 0.5 uM measured after 18 hrs by Annexin V-FITC/PI staining based flow cytometry analysis (Rvb= 9.2%); format: functional
# NCI-H1975 [2] = assay: Induction of cell cycle arrest in human NCI-H1975 cells harboring EGFR L858R/T790M mutant assessed as accumulation of cells in G0/G1 phase at 0.5 uM measured after 18 hrs by PI/RNaseA staining based flow cytometry analysis (Rvb= 42.69%); format: functional
# HCC827 [3] = assay: Induction of cell cycle arrest in human HCC827 cells harboring EGFR del E746-A750 mutant assessed as accumulation of cells in G2/M phase at 0.5 uM measured after 18 hrs by PI/RNaseA staining based flow cytometry analysis (Rvb= 16.78%); format: functional
# NCI-H1975 [4] = assay: Induction of apoptosis in human NCI-H1975 cells harboring EGFR L858R/T790M mutant assessed as live cells at 0.5 uM measured after 18 hrs by Annexin V-FITC/PI staining based flow cytometry analysis (Rvb= 89.4%); format: functional
# A549 [5] = assay: Induction of cell cycle arrest in human A549 cells harboring wild type EGFR assessed as accumulation of cells in S phase at 0.5 uM measured after 18 hrs by PI/RNaseA staining based flow cytometry analysis (Rvb= 33.26%); format: functional
# [6] = molecular target: Signal transducer and activator of transcription 3 (Homo sapiens) (UniProt P40763); assay: Inhibition of STAT3 phosphorylation at Ser727 residue in human HBE cells at 5 uM incubated for 2 hrs by immunoblotting analysis; format: cell-based
# Sequence of Signal transducer and activator of transcription 3 (Homo sapiens) (P40763 whole entry): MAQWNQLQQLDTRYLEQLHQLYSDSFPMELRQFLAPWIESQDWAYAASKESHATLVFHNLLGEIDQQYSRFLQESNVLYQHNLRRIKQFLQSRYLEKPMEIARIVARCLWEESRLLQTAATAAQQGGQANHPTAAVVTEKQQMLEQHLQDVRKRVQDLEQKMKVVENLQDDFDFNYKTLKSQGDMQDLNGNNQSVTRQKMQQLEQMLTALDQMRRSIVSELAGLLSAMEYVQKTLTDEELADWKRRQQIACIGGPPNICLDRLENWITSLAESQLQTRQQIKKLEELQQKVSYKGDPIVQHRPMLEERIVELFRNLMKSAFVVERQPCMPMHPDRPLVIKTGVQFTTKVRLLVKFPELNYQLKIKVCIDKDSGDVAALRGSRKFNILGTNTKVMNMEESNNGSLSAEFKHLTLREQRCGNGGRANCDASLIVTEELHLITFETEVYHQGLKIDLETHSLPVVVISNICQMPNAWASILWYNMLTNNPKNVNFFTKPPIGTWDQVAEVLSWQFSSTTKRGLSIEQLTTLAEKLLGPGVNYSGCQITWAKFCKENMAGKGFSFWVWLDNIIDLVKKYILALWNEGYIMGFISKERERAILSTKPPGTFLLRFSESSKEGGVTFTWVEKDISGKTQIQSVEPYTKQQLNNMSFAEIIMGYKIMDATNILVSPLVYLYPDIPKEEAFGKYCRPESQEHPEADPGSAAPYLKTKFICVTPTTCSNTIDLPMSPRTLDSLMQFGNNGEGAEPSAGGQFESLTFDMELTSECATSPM
# NCI-H1975 [7] = assay: Induction of cell cycle arrest in human NCI-H1975 cells harboring EGFR L858R/T790M mutant assessed as accumulation of cells in G0/G1 phase at 5 uM measured after 18 hrs by PI/RNaseA staining based flow cytometry analysis (Rvb= 42.69%); format: functional
# NCI-H1975 [8] = assay: Induction of cell cycle arrest in human NCI-H1975 cells harboring EGFR L858R/T790M mutant assessed as accumulation of cells in G2/M phase at 5 uM measured after 18 hrs by PI/RNaseA staining based flow cytometry analysis (Rvb= 17.33%); format: functional
# HCC827 [9] = assay: Induction of cell cycle arrest in human HCC827 cells harboring EGFR del E746-A750 mutant assessed as accumulation of cells in S phase at 0.5 uM measured after 18 hrs by PI/RNaseA staining based flow cytometry analysis (Rvb= 33.62%); format: functional
# HCC827 [10] = assay: Induction of apoptosis in human HCC827 cells harboring EGFR del E746-A750 mutant assessed as dead cells at 5 uM measured after 18 hrs by Annexin V-FITC/PI staining based flow cytometry analysis (Rvb= […]); format: functional
# NCI-H460 = assay: Cytotoxicity against human NCI-H460 cells harboring wild type EGFR assessed as reduction in cell viability measured after 48 hrs by CCK8 assay; format: functional, cell-based; conditions: NCI-H460, 48 h
# NCI-H1975 [11] = assay: Induction of cell cycle arrest in human NCI-H1975 cells harboring EGFR L858R/T790M mutant assessed as accumulation of cells in S phase at 5 uM measured after 18 hrs by PI/RNaseA staining based flow cytometry analysis (Rvb= 39.78%); format: functional
# HCC827 [12] = assay: Induction of apoptosis in human HCC827 cells harboring EGFR del E746-A750 mutant assessed as total apoptotic cells at 0.5 uM measured after 18 hrs by Annexin V-FITC/PI staining based flow cytometry analysis (Rvb= 10.8%); format: functional
# HCC827 [13] = assay: Induction of apoptosis in human HCC827 cells harboring EGFR del E746-A750 mutant assessed as late apoptotic cells at 0.5 uM measured after 18 hrs by Annexin V-FITC/PI staining based flow cytometry analysis (Rvb= 1.2%); format: functional
# NCI-H1975 [14] = assay: Induction of apoptosis in human NCI-H1975 cells harboring EGFR L858R/T790M mutant assessed as total apoptotic cells at 5 uM measured after 18 hrs by Annexin V-FITC/PI staining based flow cytometry analysis (Rvb= 9.2%); format: functional
# HCC827 [15] = assay: Induction of cell cycle arrest in human HCC827 cells harboring EGFR del E746-A750 mutant assessed as accumulation of cells in G2/M phase at 1 uM measured after 18 hrs by PI/RNaseA staining based flow cytometry analysis (Rvb= 16.78%); format: functional
# HCC827 [16] = assay: Induction of apoptosis in human HCC827 cells harboring EGFR del E746-A750 mutant assessed as late apoptotic cells at 5 uM measured after 18 hrs by Annexin V-FITC/PI staining based flow cytometry analysis (Rvb= 1.2%); format: functional
# HCC827 [17] = assay: Induction of apoptosis in human HCC827 cells harboring EGFR del E746-A750 mutant assessed as early apoptotic cells at 5 uM measured after 18 hrs by Annexin V-FITC/PI staining based flow cytometry analysis (Rvb= 9.6%); format: functional
# HCC827 [18] = assay: Cytotoxicity against human HCC827 cells harboring EGFR del E746-A750 mutant assessed as reduction in cell viability measured after 48 hrs by CCK8 assay; format: functional, cell-based; conditions: HCC827, 48 h
# NCI-H1975 [19] = assay: Induction of apoptosis in human NCI-H1975 cells harboring EGFR L858R/T790M mutant assessed as live cells at 5 uM measured after 18 hrs by Annexin V-FITC/PI staining based flow cytometry analysis (Rvb= 89.4%); format: functional
# HCC827 [20] = assay: Induction of cell cycle arrest in human HCC827 cells harboring EGFR del E746-A750 mutant assessed as accumulation of cells in G0/G1 phase at 1 uM measured after 18 hrs by PI/RNaseA staining based flow cytometry analysis (Rvb= 49.60%); format: functional
# A549 [21] = assay: Induction of cell cycle arrest in human A549 cells harboring wild type EGFR assessed as accumulation of cells in G2/M phase at 0.5 uM measured after 18 hrs by PI/RNaseA staining based flow cytometry analysis (Rvb= 8.47%); format: functional
# HCC827 [22] = assay: Induction of apoptosis in human HCC827 cells harboring EGFR del E746-A750 mutant assessed as early apoptotic cells at 0.5 uM measured after 18 hrs by Annexin V-FITC/PI staining based flow cytometry analysis (Rvb= 9.6%); format: functional
# HCC827 [23] = assay: Induction of apoptosis in human HCC827 cells harboring EGFR del E746-A750 mutant assessed as live cells at 0.5 uM measured after 18 hrs by Annexin V-FITC/PI staining based flow cytometry analysis (Rvb= 87.5%); format: functional
# [24] = molecular target: MAP kinase p38 (Homo sapiens) (UniProt O15264+Q15759+Q16539+P53778); assay: Inhibition of p38 MAPK phosphorylation at Thr180/Tyr182 residue in human HBE cells at 5 uM incubated for 2 hrs by immunoblotting analysis; format: cell-based
# NCI-H1975 [25] = assay: Induction of apoptosis in human NCI-H1975 cells harboring EGFR L858R/T790M mutant assessed as early apoptotic cells at 0.5 uM measured after 18 hrs by Annexin V-FITC/PI staining based flow cytometry analysis (Rvb= […]); format: functional
# [26] = molecular target: Ribosomal protein S6 kinase beta-1 (Homo sapiens) (UniProt P23443); assay: Inhibition of P70S6K phosphorylation in human NCI-H1975 cells at 0.1 to 5 uM incubated for 2 hrs by immunoblotting analysis; format: cell-based; conditions: dose 0.1-5 µM
# Sequence of Ribosomal protein S6 kinase beta-1 (Homo sapiens) (P23443 whole entry, looked up): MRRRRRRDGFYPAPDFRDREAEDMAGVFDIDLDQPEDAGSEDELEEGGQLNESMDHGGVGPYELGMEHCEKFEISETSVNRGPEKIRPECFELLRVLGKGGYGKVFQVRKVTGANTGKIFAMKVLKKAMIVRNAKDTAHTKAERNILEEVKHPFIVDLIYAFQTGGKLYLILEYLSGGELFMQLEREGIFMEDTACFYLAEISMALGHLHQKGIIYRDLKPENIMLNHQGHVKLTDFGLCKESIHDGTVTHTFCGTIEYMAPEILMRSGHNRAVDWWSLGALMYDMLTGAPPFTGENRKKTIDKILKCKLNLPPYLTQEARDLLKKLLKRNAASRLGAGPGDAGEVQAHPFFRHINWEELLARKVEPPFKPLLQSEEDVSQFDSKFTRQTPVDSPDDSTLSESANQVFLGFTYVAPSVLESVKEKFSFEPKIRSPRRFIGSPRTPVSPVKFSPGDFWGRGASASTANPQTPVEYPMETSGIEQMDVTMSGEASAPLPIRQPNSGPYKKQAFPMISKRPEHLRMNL
Structure (SMILES),Activity (NCI-H1975 [1]) [%],Activity (NCI-H1975 [2]) [%],Activity (HCC827 [3]) [%],Activity (NCI-H1975 [4]) [%],Activity (A549 [5]) [%],inhibition [6],Activity (NCI-H1975 [7]) [%],Activity (NCI-H1975 [8]) [%],Activity (HCC827 [9]) [%],Activity (HCC827 [10]) [%],IC50 (NCI-H460) [µM],Activity (NCI-H1975 [11]) [%],Activity (HCC827 [12]) [%],Activity (HCC827 [13]) [%],Activity (NCI-H1975 [14]) [%],Activity (HCC827 [15]) [%],Activity (HCC827 [16]) [%],Activity (HCC827 [17]) [%],IC50 (HCC827 [18]) [µM],Activity (NCI-H1975 [19]) [%],other results
C=CC(=O)Nc1cccc(Oc2nc(Nc3ccc(N4CCN(C)CC4)c(N)c3)nc3[nH]ccc23)c1,16.4,64.04,10.04,81.1,29.06,inactive,80.62,9.23,15.39,2.1,26.7,10.15,23.6,12.5,16.1,7.18,16.6,12.1,0.046,81.9,Activity (HCC827 [20]): 72.43%; Activity (A549 [21]): 10.49%; Activity (HCC827 [22]): 11.1%; Activity (HCC827 [23]): 69.1%; inhibition [24]: Active; Activity (NCI-H1975 [25]): 16.1%; inhibition [26]: Active
C=CC(=O)Nc1cccc(Oc2nc(Nc3ccc(N4CCN(C)CC4)c([N+](=O)[O-])c3)nc3[nH]ccc23)c1,12.7,64.89,8.5,85.3,27.39,inactive,80.34,9.63,14.31,2.5,8.02,10.03,23.8,11.4,13.5,11.55,19.4,10.9,0.11,84.7,Activity (HCC827 [20]): 77.64%; Activity (A549 [21]): 9.99%; Activity (HCC827 [22]): 12.4%; Activity (HCC827 [23]): 68.2%; inhibition [24]: Active; Activity (NCI-H1975 [25]): 12.4%; inhibition [26]: Active
C=CC(=O)Nc1cccc(Oc2nc(Nc3ccc(N4CCN(C)CC4)c(F)c3)nc3[nH]ccc23)c1 [ABIVERTINIB],9.5,61.74,9.53,89,30.03,inactive,79.06,11.14,15.36,1.5,6.02,9.8,30.3,18.3,11.7,11.63,21.6,13.8,0.1,86.3,Activity (HCC827 [20]): 73%; Activity (A549 [21]): 10.15%; Activity (HCC827 [22]): 12%; Activity (HCC827 [23]): 67.9%; inhibition [24]: Active; Activity (NCI-H1975 [25]): 8.3%; inhibition [26]: Active
